Legend:
CCK1 (CCKA) (h) = target: T1, CCK1 (CCKA) (h) (Homo sapiens, UniProt P32238); experiment: CEREP binding panel; settings: agonist radioligand, read-out: % Inhibition of Control Specific Binding
T1 construct: purchased Millipore KinaseProfiler (kinases); Cerep (receptors and ion channels)

JNK3 = target: T2, JNK3 (Homo sapiens, UniProt P53779); experiment: Millipore kinase panel; assay type: biochemical; settings: read-out: % Control
T2 construct: purchased Millipore KinaseProfiler (kinases); Cerep (receptors and ion channels)

5-HT1A (h) = target: T3, 5-HT1A (h) (Homo sapiens, UniProt P08908); experiment: CEREP binding panel; settings: agonist radioligand, read-out: % Inhibition of Control Specific Binding
T3 construct: purchased Millipore KinaseProfiler (kinases); Cerep (receptors and ion channels)

NK3 (h) = target: T4, NK3 (h) (Homo sapiens, UniProt P29371); experiment: CEREP binding panel; settings: antagonist radioligand, read-out: % Inhibition of Control Specific Binding
T4 construct: purchased Millipore KinaseProfiler (kinases); Cerep (receptors and ion channels)

NEK3 = target: T5, NEK3 (Homo sapiens, UniProt P51956); experiment: Millipore kinase panel; assay type: biochemical; settings: read-out: % Control
T5 construct: purchased Millipore KinaseProfiler (kinases); Cerep (receptors and ion channels)

SGK3 = target: T6, SGK3 (Homo sapiens, UniProt Q96BR1); experiment: Millipore kinase panel; assay type: biochemical; settings: read-out: % Control
T6 construct: purchased Millipore KinaseProfiler (kinases); Cerep (receptors and ion channels)

BLK = experiment: Millipore kinase panel; assay type: biochemical; settings: 1 μM, ATP at Km
MINK = target: T7, MINK (Homo sapiens, UniProt Q8N4C8); experiment: Millipore kinase panel; assay type: biochemical; settings: read-out: % Control
T7 construct: purchased Millipore KinaseProfiler (kinases); Cerep (receptors and ion channels)
T7 sequence (Q8N4C8 whole entry): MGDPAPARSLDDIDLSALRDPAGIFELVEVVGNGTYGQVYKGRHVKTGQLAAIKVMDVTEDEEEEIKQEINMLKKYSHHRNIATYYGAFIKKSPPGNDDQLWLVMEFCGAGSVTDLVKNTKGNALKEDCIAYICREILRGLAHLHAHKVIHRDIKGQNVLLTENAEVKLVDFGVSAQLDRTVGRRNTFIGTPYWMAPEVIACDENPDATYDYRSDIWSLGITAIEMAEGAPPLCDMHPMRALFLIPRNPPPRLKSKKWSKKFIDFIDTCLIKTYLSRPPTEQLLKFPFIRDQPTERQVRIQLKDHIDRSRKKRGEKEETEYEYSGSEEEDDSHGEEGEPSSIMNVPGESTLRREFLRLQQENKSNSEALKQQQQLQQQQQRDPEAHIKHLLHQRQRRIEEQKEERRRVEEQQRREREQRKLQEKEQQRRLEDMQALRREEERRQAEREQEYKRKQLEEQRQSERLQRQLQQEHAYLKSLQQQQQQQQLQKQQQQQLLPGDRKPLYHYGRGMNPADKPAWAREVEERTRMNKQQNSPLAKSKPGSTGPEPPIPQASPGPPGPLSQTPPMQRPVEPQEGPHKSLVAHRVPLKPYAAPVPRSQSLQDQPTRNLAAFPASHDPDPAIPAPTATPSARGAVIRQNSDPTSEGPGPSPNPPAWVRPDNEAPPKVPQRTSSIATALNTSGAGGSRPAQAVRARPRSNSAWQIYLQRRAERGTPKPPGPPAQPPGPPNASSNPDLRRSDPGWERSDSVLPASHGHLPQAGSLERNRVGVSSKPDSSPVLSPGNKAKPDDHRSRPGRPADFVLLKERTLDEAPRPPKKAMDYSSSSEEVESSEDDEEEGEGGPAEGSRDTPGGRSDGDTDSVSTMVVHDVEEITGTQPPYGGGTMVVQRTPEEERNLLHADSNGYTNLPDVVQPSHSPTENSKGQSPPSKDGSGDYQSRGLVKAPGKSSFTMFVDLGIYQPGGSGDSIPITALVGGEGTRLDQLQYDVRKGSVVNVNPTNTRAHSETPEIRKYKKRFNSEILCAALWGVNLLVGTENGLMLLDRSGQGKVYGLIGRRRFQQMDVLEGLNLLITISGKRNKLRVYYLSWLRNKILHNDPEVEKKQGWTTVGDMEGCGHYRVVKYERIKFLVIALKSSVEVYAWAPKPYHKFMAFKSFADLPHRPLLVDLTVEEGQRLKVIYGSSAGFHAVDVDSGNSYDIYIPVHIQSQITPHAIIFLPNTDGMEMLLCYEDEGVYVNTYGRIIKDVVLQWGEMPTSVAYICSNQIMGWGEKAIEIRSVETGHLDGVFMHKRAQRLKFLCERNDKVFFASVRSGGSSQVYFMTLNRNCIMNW

RET = target: T8, RET (Homo sapiens, UniProt P07949); experiment: Millipore kinase panel; assay type: biochemical; settings: read-out: % Control
T8 construct: purchased Millipore KinaseProfiler (kinases); Cerep (receptors and ion channels)
T8 sequence (P07949 29-1114): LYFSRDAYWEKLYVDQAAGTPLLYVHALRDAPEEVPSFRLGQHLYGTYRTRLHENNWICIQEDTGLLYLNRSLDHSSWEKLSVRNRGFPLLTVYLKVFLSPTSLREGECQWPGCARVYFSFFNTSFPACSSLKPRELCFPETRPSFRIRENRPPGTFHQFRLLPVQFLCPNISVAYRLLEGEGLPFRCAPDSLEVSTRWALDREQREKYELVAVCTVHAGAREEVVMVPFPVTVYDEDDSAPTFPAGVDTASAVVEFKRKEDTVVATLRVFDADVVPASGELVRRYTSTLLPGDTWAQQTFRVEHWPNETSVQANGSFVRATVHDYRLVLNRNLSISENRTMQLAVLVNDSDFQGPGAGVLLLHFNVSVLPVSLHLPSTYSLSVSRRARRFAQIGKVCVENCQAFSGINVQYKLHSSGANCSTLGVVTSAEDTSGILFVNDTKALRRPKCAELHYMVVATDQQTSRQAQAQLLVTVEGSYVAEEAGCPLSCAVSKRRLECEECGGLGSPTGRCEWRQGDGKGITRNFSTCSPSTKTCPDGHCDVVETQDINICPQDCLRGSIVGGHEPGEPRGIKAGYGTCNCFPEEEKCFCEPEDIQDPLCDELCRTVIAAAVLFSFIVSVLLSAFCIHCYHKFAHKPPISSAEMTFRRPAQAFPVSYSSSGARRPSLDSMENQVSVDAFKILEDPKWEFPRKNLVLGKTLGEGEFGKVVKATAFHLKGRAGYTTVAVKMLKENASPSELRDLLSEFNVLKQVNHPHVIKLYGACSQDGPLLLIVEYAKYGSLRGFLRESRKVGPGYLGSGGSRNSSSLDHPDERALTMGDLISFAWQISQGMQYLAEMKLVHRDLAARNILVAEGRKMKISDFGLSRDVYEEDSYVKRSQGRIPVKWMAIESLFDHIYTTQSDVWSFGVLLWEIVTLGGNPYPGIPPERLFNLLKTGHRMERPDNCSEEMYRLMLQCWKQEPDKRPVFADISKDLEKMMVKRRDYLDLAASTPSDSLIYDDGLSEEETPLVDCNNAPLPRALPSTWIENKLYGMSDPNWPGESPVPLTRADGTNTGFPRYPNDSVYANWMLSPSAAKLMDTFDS

H1 (h) = target: T9, H1 (h) (Homo sapiens, UniProt P35367); experiment: CEREP binding panel; settings: antagonist radioligand, read-out: % Inhibition of Control Specific Binding
T9 construct: purchased Millipore KinaseProfiler (kinases); Cerep (receptors and ion channels)

CSK = target: T10, CSK (Homo sapiens, UniProt P41240); experiment: Millipore kinase panel; assay type: biochemical; settings: read-out: % Control
T10 construct: purchased Millipore KinaseProfiler (kinases); Cerep (receptors and ion channels)

RIPK2 = target: T11, RIPK2 (Homo sapiens, UniProt O43353); experiment: Millipore kinase panel; assay type: biochemical; settings: read-out: % Control
T11 construct: purchased Millipore KinaseProfiler (kinases); Cerep (receptors and ion channels)

CKIT = target: T12, CKIT (Homo sapiens, UniProt P10721); experiment: Millipore kinase panel; assay type: biochemical; settings: read-out: % Control
T12 construct: purchased Millipore KinaseProfiler (kinases); Cerep (receptors and ion channels)
T12 sequence (P10721 26-976): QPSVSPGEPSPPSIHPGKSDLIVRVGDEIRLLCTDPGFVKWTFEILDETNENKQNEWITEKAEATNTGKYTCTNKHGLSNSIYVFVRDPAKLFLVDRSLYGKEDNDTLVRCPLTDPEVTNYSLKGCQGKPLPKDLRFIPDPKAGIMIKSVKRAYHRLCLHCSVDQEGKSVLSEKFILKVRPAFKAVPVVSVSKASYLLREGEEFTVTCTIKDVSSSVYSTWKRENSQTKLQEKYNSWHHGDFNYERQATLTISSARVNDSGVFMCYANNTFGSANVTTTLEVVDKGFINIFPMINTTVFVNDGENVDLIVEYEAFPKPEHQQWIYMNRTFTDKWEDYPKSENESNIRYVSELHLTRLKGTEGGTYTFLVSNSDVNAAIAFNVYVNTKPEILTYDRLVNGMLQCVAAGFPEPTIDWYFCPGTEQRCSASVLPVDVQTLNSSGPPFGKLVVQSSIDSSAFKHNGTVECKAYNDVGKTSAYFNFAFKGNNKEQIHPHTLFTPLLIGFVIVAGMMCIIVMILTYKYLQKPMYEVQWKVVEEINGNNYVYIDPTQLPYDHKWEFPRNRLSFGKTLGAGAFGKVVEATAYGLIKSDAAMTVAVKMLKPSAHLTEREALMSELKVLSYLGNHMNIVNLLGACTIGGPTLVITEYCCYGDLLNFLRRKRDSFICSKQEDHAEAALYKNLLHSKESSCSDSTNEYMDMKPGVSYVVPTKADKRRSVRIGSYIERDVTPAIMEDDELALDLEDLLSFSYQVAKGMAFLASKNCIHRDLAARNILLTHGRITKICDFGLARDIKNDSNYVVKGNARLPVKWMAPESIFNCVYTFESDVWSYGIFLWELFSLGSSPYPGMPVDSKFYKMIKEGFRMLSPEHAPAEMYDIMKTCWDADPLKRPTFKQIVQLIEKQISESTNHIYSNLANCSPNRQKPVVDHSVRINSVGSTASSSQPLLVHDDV

EPHA3 = target: T13, EPHA3 (Homo sapiens, UniProt P29320); experiment: Millipore kinase panel; assay type: biochemical; settings: read-out: % Control
T13 construct: purchased Millipore KinaseProfiler (kinases); Cerep (receptors and ion channels)

Na+ channel (site 2) = experiment: CEREP binding panel; settings: 10 μM, antagonist radioligand
MAPKAP-K2 = target: T14, MAPKAP-K2 (Homo sapiens, UniProt P49137); experiment: Millipore kinase panel; assay type: biochemical; settings: read-out: % Control
T14 construct: purchased Millipore KinaseProfiler (kinases); Cerep (receptors and ion channels)

RSK1 = target: T15, RSK1 (Homo sapiens, UniProt Q15418); experiment: Millipore kinase panel; assay type: biochemical; settings: read-out: % Control
T15 construct: purchased Millipore KinaseProfiler (kinases); Cerep (receptors and ion channels)

PYK2 = target: T16, PYK2 (Homo sapiens, UniProt Q14289); experiment: Millipore kinase panel; assay type: biochemical; settings: read-out: % Control
T16 construct: purchased Millipore KinaseProfiler (kinases); Cerep (receptors and ion channels)

MAPK1 = target: T17, MAPK1 (Homo sapiens, UniProt P27361); experiment: Millipore kinase panel; assay type: biochemical; settings: read-out: % Control
T17 construct: purchased Millipore KinaseProfiler (kinases); Cerep (receptors and ion channels)
T17 sequence (P27361 whole entry): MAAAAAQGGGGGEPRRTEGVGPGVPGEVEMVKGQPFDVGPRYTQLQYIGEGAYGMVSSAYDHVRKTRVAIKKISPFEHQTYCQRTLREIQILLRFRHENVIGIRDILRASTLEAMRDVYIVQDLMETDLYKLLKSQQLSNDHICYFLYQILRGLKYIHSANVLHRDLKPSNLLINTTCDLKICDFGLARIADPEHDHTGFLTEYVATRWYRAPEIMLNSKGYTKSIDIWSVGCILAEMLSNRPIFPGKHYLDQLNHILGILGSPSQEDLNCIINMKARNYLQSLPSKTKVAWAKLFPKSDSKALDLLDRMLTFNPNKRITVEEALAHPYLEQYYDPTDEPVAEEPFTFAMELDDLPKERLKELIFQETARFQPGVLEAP

PDGFRALPHA = target: T18, PDGFRALPHA (Homo sapiens, UniProt P16234); experiment: Millipore kinase panel; assay type: biochemical; settings: read-out: % Control
T18 construct: purchased Millipore KinaseProfiler (kinases); Cerep (receptors and ion channels)

MSSK1 = target: T19, MSSK1 (Homo sapiens, UniProt Q9UPE1); experiment: Millipore kinase panel; assay type: biochemical; settings: read-out: % Control
T19 construct: purchased Millipore KinaseProfiler (kinases); Cerep (receptors and ion channels)
T19 sequence (Q9UPE1 whole entry): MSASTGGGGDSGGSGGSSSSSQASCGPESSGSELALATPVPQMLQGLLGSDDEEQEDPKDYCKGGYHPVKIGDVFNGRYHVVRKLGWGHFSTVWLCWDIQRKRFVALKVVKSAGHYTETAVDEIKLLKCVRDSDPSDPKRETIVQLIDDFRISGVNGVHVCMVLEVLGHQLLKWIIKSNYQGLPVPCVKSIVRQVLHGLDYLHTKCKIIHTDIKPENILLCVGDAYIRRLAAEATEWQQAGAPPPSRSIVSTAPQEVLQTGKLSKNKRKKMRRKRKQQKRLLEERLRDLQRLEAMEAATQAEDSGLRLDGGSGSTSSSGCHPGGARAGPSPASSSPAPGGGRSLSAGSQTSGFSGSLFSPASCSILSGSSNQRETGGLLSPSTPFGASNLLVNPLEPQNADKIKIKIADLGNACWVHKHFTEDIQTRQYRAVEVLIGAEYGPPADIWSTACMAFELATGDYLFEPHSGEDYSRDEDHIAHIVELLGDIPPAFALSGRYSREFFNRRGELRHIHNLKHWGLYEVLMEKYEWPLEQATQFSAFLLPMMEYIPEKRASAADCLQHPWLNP

MSK1 = target: T20, MSK1 (Homo sapiens, UniProt O75582); experiment: Millipore kinase panel; assay type: biochemical; settings: read-out: % Control
T20 construct: purchased Millipore KinaseProfiler (kinases); Cerep (receptors and ion channels)

SAPK2A = target: T21, SAPK2A (Homo sapiens, UniProt Q16539); experiment: Millipore kinase panel; assay type: biochemical; settings: read-out: % Control
T21 construct: purchased Millipore KinaseProfiler (kinases); Cerep (receptors and ion channels)

MT1 (ML1A) (h) = target: T22, MT1 (ML1A) (h) (Homo sapiens, UniProt P48039); experiment: CEREP binding panel; settings: agonist radioligand, read-out: % Inhibition of Control Specific Binding
T22 construct: purchased Millipore KinaseProfiler (kinases); Cerep (receptors and ion channels)
T22 sequence (P48039 whole entry): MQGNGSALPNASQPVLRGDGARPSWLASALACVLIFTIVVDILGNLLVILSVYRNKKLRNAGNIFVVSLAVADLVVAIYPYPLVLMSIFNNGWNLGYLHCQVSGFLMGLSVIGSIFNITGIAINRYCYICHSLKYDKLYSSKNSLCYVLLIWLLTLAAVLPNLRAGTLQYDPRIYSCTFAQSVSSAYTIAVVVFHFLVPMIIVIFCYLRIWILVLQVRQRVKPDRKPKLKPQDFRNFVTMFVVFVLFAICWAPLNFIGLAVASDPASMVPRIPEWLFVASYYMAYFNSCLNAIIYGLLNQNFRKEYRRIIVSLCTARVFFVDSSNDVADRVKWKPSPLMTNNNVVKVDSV

M1 (h) = target: T23, M1 (h) (Homo sapiens, UniProt P11229); experiment: CEREP binding panel; settings: antagonist radioligand, read-out: % Inhibition of Control Specific Binding
T23 construct: purchased Millipore KinaseProfiler (kinases); Cerep (receptors and ion channels)

MET = target: T24, MET (Homo sapiens, UniProt P08581); experiment: Millipore kinase panel; assay type: biochemical; settings: read-out: % Control
T24 construct: purchased Millipore KinaseProfiler (kinases); Cerep (receptors and ion channels)

MRCKBETA = target: T25, MRCKBETA (Homo sapiens, UniProt Q9Y5S2); experiment: Millipore kinase panel; assay type: biochemical; settings: read-out: % Control
T25 construct: purchased Millipore KinaseProfiler (kinases); Cerep (receptors and ion channels)

SAPK3 = target: T26, SAPK3 (Homo sapiens, UniProt P53778); experiment: Millipore kinase panel; assay type: biochemical; settings: read-out: % Control
T26 construct: purchased Millipore KinaseProfiler (kinases); Cerep (receptors and ion channels)
T26 sequence (P53778 whole entry): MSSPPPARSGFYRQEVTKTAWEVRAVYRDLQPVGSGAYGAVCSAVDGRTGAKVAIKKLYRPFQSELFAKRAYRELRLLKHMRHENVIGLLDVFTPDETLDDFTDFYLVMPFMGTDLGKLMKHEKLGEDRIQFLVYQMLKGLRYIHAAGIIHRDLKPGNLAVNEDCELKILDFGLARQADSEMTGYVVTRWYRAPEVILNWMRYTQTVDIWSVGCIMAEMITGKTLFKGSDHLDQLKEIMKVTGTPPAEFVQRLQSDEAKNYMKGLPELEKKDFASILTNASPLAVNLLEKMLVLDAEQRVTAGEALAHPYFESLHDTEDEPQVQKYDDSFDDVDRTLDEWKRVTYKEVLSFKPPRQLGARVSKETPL

MC4 (h) = target: T27, MC4 (h) (Homo sapiens, UniProt P32245); experiment: CEREP binding panel; settings: agonist radioligand, read-out: % Inhibition of Control Specific Binding
T27 construct: purchased Millipore KinaseProfiler (kinases); Cerep (receptors and ion channels)

EPHB1 = target: T28, EPHB1 (Homo sapiens, UniProt P54762); experiment: Millipore kinase panel; assay type: biochemical; settings: read-out: % Control
T28 construct: purchased Millipore KinaseProfiler (kinases); Cerep (receptors and ion channels)

VRK2 = target: T29, VRK2 (Homo sapiens, UniProt Q86Y07); experiment: Millipore kinase panel; assay type: biochemical; settings: read-out: % Control
T29 construct: purchased Millipore KinaseProfiler (kinases); Cerep (receptors and ion channels)

MARK1 = target: T30, MARK1 (Homo sapiens, UniProt Q9P0L2); experiment: Millipore kinase panel; assay type: biochemical; settings: read-out: % Control
T30 construct: purchased Millipore KinaseProfiler (kinases); Cerep (receptors and ion channels)

JNK2ALPHA2 = target: T31, JNK2ALPHA2 (Homo sapiens, UniProt P45984); experiment: Millipore kinase panel; assay type: biochemical; settings: read-out: % Control
T31 construct: purchased Millipore KinaseProfiler (kinases); Cerep (receptors and ion channels)

FMS = target: T32, FMS (Homo sapiens, UniProt P07333); experiment: Millipore kinase panel; assay type: biochemical; settings: read-out: % Control
T32 construct: purchased Millipore KinaseProfiler (kinases); Cerep (receptors and ion channels)

SNK = target: T33, SNK (Homo sapiens, UniProt Q9NYY3); experiment: Millipore kinase panel; assay type: biochemical; settings: read-out: % Control
T33 construct: purchased Millipore KinaseProfiler (kinases); Cerep (receptors and ion channels)

NEK7 = target: T34, NEK7 (Homo sapiens, UniProt Q8TDX7); experiment: Millipore kinase panel; assay type: biochemical; settings: read-out: % Control
T34 construct: purchased Millipore KinaseProfiler (kinases); Cerep (receptors and ion channels)

CDK9/CYCLINT1 = target: T35, CDK9/CYCLINT1 (Homo sapiens, UniProt P50750); experiment: Millipore kinase panel; assay type: biochemical; settings: read-out: % Control
T35 construct: purchased Millipore KinaseProfiler (kinases); Cerep (receptors and ion channels)

Y2 (h) = target: T36, Y2 (h) (Homo sapiens, UniProt P49146); experiment: CEREP binding panel; settings: agonist radioligand, read-out: % Inhibition of Control Specific Binding
T36 construct: purchased Millipore KinaseProfiler (kinases); Cerep (receptors and ion channels)

EPHA2 = target: T37, EPHA2 (Homo sapiens, UniProt P29317); experiment: Millipore kinase panel; assay type: biochemical; settings: read-out: % Control
T37 construct: purchased Millipore KinaseProfiler (kinases); Cerep (receptors and ion channels)

GCK = target: T38, GCK (Homo sapiens, UniProt Q12851); experiment: Millipore kinase panel; assay type: biochemical; settings: read-out: % Control
T38 construct: purchased Millipore KinaseProfiler (kinases); Cerep (receptors and ion channels)

EPHB4 = target: T39, EPHB4 (Homo sapiens, UniProt P54760); experiment: Millipore kinase panel; assay type: biochemical; settings: read-out: % Control
T39 construct: purchased Millipore KinaseProfiler (kinases); Cerep (receptors and ion channels)

TSSK1 = target: T40, TSSK1 (Homo sapiens, UniProt Q9BXA7); experiment: Millipore kinase panel; assay type: biochemical; settings: read-out: % Control
T40 construct: purchased Millipore KinaseProfiler (kinases); Cerep (receptors and ion channels)

KDR = target: T41, KDR (Homo sapiens, UniProt P35968); experiment: Millipore kinase panel; assay type: biochemical; settings: read-out: % Control
T41 construct: purchased Millipore KinaseProfiler (kinases); Cerep (receptors and ion channels)

TIE2 = target: T42, TIE2 (Homo sapiens, UniProt Q02763); experiment: Millipore kinase panel; assay type: biochemical; settings: read-out: % Control
T42 construct: purchased Millipore KinaseProfiler (kinases); Cerep (receptors and ion channels)

## O=C1NCCC12CCN(c1c(Cl)cncc1-c1ccc(N3CCOCC3)cc1)CC2 [Compound 44, 8-(3-Chloro-5-(4-morpholin-4-ylphenyl)pyridin-4-yl)-2,8-diazaspiro[4.5]decan-1-one]
CCK1 (CCKA) (h)
  inhibition at 10 µM: -16%
JNK3
  remaining activity at 1 µM: 11%
5-HT1A (h)
  inhibition at 10 µM: 11%
NK3 (h)
  inhibition at 10 µM: 5%
NEK3
  remaining activity at 1 µM: 18%
SGK3
  remaining activity at 1 µM: 5%
BLK
  % Control: 16%
MINK
  remaining activity at 1 µM: 7%
RET
  remaining activity at 1 µM: 14%
H1 (h)
  inhibition at 10 µM: -5%
CSK
  remaining activity at 1 µM: -1%
RIPK2
  remaining activity at 1 µM: 3%
CKIT
  remaining activity at 1 µM: 12%
EPHA3
  remaining activity at 1 µM: 10%
Na+ channel (site 2)
  % Inhibition of Control Specific Binding: 15%
MAPKAP-K2
  remaining activity at 1 µM: 0%
RSK1
  remaining activity at 1 µM: 2%
PYK2
  remaining activity at 1 µM: -6%
MAPK1
  remaining activity at 1 µM: 10%
PDGFRALPHA
  remaining activity at 1 µM: 2%
MSSK1
  remaining activity at 1 µM: -10%
MSK1
  remaining activity at 1 µM: 18%
SAPK2A
  remaining activity at 1 µM: -1%
MT1 (ML1A) (h)
  inhibition at 10 µM: 17%
M1 (h)
  inhibition at 10 µM: 12%
MET
  remaining activity at 1 µM: -14%
MRCKBETA
  remaining activity at 1 µM: 4%
SAPK3
  remaining activity at 1 µM: 35%
MC4 (h)
  inhibition at 10 µM: 10%
EPHB1
  remaining activity at 1 µM: -1%
VRK2
  remaining activity at 1 µM: -5%
MARK1
  remaining activity at 1 µM: 4%
JNK2ALPHA2
  remaining activity at 1 µM: 9%
FMS
  remaining activity at 1 µM: -39%
SNK
  remaining activity at 1 µM: -5%
NEK7
  remaining activity at 1 µM: -7%
CDK9/CYCLINT1
  remaining activity at 1 µM: -24%
Y2 (h)
  inhibition at 10 µM: -8%
EPHA2
  remaining activity at 1 µM: 10%
GCK
  remaining activity at 1 µM: -9%
EPHB4
  remaining activity at 1 µM: 4%
TSSK1
  remaining activity at 1 µM: 11%
KDR
  remaining activity at 1 µM: 21%
TIE2
  remaining activity at 1 µM: 19%

— paper PMC4767141, “Discovery of Potent, Orally Bioavailable, Small-Molecule Inhibitors of WNT Signaling from a Cell-Based Pathway Screen” (Journal of Medicinal Chemistry, 2015)
